What follows are compounds tested against T1, PARP1 (Homo sapiens, UniProt P09874) (assay: PARP1 Biochemical Assay (BPS Bioscience kit, chemiluminescence)). Settings: histone-coated plate, biotinilated NAD+, 25° C. for 60 min, luminescence, read-out: PARP 1 inhibition IC50.
T1 construct: purchased BPS Bioscience
Outline: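 Human PARP1 (25–75 ng/well) with activated DNA was incubated with compound on histone-coated wells. Biotinylated NAD+ was added and the reaction ran 60 min at 25 °C. Ribosylation was detected by streptavidin-HRP chemiluminescence, % inhibition was normalised to enzyme-free and uninhibited controls, and IC50 was fitted from % inhibition versus concentration.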

T1 sequence (P09874 whole entry): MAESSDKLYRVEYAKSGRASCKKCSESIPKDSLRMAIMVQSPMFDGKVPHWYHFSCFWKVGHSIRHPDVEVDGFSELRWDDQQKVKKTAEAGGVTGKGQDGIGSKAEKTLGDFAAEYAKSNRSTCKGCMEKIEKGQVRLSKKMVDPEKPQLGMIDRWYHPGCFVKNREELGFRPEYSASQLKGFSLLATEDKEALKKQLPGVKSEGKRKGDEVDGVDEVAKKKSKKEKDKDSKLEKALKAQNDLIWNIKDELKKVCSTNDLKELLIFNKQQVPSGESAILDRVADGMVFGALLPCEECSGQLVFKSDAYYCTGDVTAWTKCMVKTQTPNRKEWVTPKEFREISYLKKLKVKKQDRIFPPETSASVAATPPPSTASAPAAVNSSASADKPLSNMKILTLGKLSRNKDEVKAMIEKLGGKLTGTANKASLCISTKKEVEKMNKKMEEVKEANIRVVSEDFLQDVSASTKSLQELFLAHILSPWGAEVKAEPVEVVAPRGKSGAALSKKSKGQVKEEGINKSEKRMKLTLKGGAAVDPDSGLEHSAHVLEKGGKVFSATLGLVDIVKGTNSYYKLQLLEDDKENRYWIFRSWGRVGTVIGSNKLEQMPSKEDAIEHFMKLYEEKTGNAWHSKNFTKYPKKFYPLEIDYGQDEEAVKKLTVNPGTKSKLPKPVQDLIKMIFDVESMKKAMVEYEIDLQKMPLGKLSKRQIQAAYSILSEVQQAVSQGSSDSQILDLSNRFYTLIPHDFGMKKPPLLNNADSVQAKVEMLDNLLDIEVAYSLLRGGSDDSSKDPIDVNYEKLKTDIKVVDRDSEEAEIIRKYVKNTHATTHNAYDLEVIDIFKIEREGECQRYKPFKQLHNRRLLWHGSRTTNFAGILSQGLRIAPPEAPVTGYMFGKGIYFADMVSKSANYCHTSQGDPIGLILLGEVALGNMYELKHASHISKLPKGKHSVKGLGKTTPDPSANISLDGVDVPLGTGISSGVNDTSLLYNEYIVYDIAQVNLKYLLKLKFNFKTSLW

Row | IC50 | SMILES
1 | 0.501 to 5 µM | CNC(=O)c1ccnc(N2CCN([C@H]3C=C(c4nc5c(c(=O)[nH]4)CC4(CC5)CC4)CC3)CC2)c1 [Compound 130, (R)—N-methyl-2-(4-(3-(4′-oxo-4′,5′,7′,8′-tetrahydro-3′H-spiro[cyclopropane-1,6′-quinazolin]-2′-yl)cyclopent-2-en-1-yl)piperazin-1-yl)isonicotinamide]
2 | 0.501 to 5 µM | CNC(=O)c1cccnc1N1CCN([C@H]2C=C(c3nc4c(c(=O)[nH]3)CC3(CC4)CC3)CC2)CC1 [Compound 131, (R)—N-methyl-2-(4-(3-(4′-oxo-4′,5′,7′,8′-tetrahydro-3′H-spiro[cyclopropane-1,6′-quinazolin]-2′-yl)cyclopent-2-en-1-yl)piperazin-1-yl)nicotinamide]
3 | 0.001 to 0.5 µM | Cc1cccnc1N1CCN([C@H]2C=C(c3nc4c(c(=O)[nH]3)CC3(CC4)CC3)CC2)CC1 [Compound 132, (R)-2′-(3-(4-(3-methylpyridin-2-yl)piperazin-1-yl)cyclopent-1-en-1-yl)-7′,8′-dihydro-3′H-spiro[cyclopropane-1,6′-quinazolin]-4′(5′H)-one]
4 | 0.001 to 0.5 µM | COc1cc(F)ccc1N1CCN([C@H]2C=C(c3nc4c(c(=O)[nH]3)CC3(CC4)CC3)CC2)CC1 [Compound 133, (R)-2′-(3-(4-(4-fluoro-2-methoxyphenyl)piperazin-1-yl)cyclopent-1-en-1-yl)-7′,8′-dihydro-3′H-spiro[cyclopropane-1,6′-quinazolin]-4′(5′H)-one]
5 | 0.001 to 0.5 µM | CNC(=O)c1ccc(N2CCN([C@H]3C=C(c4nc5c(c(=O)[nH]4)CC4(CC5)CC4)CC3)CC2)c(Cl)c1 [Compound 134, (R)-3-chloro-N-methyl-4-(4-(3-(4′-oxo-4′,5′,7′,8′-tetrahydro-3′H-spiro[cyclopropane-1,6′-quinazolin]-2′-yl)cyclopent-2-en-1-yl)piperazin-1-yl)benzamide]
6 | 5 to 500 µM | CCc1cnc(N2CCN([C@H]3C=C(c4nc5c(c(=O)[nH]4)CC4(CC5)CC4)CC3)CC2)nc1 [Compound 135, (R)-2′-(3-(4-(5-ethylpyrimidin-2-yl)piperazin-1-yl)cyclopent-1-en-1-yl)-7′,8′-dihydro-3′H-spiro[cyclopropane-1,6′-quinazolin]-4′(5′H)-one]
7 | 0.501 to 5 µM | Cc1ccc(N2CCN([C@H]3C=C(c4nc5c(c(=O)[nH]4)CC4(CC5)CC4)CC3)CC2)cc1C [Compound 136, (R)-2′-(3-(4-(3,4-dimethylphenyl)piperazin-1-yl)cyclopent-1-en-1-yl)-7′,8′-dihydro-3′H-spiro[cyclopropane-1,6′-quinazolin]-4′(5′H)-one]
8 | 0.001 to 0.5 µM | Cc1cc(N2CCN([C@H]3C=C(c4nc5c(c(=O)[nH]4)CC4(CC5)CC4)CC3)CC2)ncc1F [Compound 137, (R)-2′-(3-(4-(5-fluoro-4-methylpyridin-2-yl)piperazin-1-yl)cyclopent-1-en-1-yl)-7′,8′-dihydro-3′H-spiro[cyclopropane-1,6′-quinazolin]-4′(5′H)-one]
9 | 0.501 to 5 µM | O=c1[nH]c(C2=C[C@H](N3CCN(c4cc(Cl)ccc4F)CC3)CC2)nc2c1CC1(CC2)CC1 [Compound 138, (R)-2′-(3-(4-(5-chloro-2-fluorophenyl)piperazin-1-yl)cyclopent-1-en-1-yl)-7′,8′-dihydro-3′H-spiro[cyclopropane-1,6′-quinazolin]-4′(5′H)-one]
10 | 5 to 500 µM | O=c1[nH]c(C2=C[C@H](N3CCN(c4c(F)cccc4Cl)CC3)CC2)nc2c1CC1(CC2)CC1 [Compound 139, (R)-2′-(3-(4-(2-chloro-6-fluorophenyl)piperazin-1-yl)cyclopent-1-en-1-yl)-7′,8′-dihydro-3′H-spiro[cyclopropane-1,6′-quinazolin]-4′(5′H)-one]
11 | 0.501 to 5 µM | Cc1cccc(N2CCN([C@H]3C=C(c4nc5c(c(=O)[nH]4)CC4(CC5)CC4)CC3)CC2)c1C [Compound 140, (R)-2′-(3-(4-(2,3-dimethylphenyl)piperazin-1-yl)cyclopent-1-en-1-yl)-7′,8′-dihydro-3′H-spiro[cyclopropane-1,6′-quinazolin]-4′(5′H)-one]
12 | 0.001 to 0.5 µM | Cc1cc(N2CCN([C@H]3C=C(c4nc5c(c(=O)[nH]4)CC4(CC5)CC4)CC3)CC2)ncc1Cl [Compound 141, (R)-2′-(3-(4-(5-chloro-4-methylpyridin-2-yl)piperazin-1-yl)cyclopent-1-en-1-yl)-7′,8′-dihydro-3′H-spiro[cyclopropane-1,6′-quinazolin]-4′(5′H)-one]
13 | 0.001 to 0.5 µM | O=c1[nH]c(C2=C[C@H](N3CCN(c4cncc(F)c4)CC3)CC2)nc2c1CC1(CC2)CC1 [Compound 142, (R)-2′-(3-(4-(5-fluoropyridin-3-yl)piperazin-1-yl)cyclopent-1-en-1-yl)-7′,8′-dihydro-3′H-spiro[cyclopropane-1,6′-quinazolin]-4′(5′H)-one]
14 | 0.001 to 0.5 µM | Cc1c(Cl)cccc1N1CCN([C@H]2C=C(c3nc4c(c(=O)[nH]3)CC3(CC4)CC3)CC2)CC1 [Compound 143, (R)-2′-(3-(4-(3-chloro-2-methylphenyl)piperazin-1-yl)cyclopent-1-en-1-yl)-7′,8′-dihydro-3′H-spiro[cyclopropane-1,6′-quinazolin]-4′(5′H)-one]
15 | 0.501 to 5 µM | Cc1ccc(C)c(N2CCN([C@H]3C=C(c4nc5c(c(=O)[nH]4)CC4(CC5)CC4)CC3)CC2)c1 [Compound 144, (R)-2′-(3-(4-(2,5-dimethylphenyl)piperazin-1-yl)cyclopent-1-en-1-yl)-7′,8′-dihydro-3′H-spiro[cyclopropane-1,6′-quinazolin]-4′(5′H)-one]
16 | 0.001 to 0.5 µM | Cc1cccc(N2CCN([C@H]3C=C(c4nc5c(c(=O)[nH]4)CC4(CC5)CC4)CC3)CC2)n1 [Compound 145, (R)-2′-(3-(4-(6-methylpyridin-2-yl)piperazin-1-yl)cyclopent-1-en-1-yl)-7′,8′-dihydro-3′H-spiro[cyclopropane-1,6′-quinazolin]-4′(5′H)-one]
17 | 0.001 to 0.5 µM | O=c1[nH]c(C2=C[C@H](N3CCN(c4ncc(Cl)cc4F)CC3)CC2)nc2c1CC1(CC2)CC1 [Compound 146, (R)-2′-(3-(4-(5-chloro-3-fluoropyridin-2-yl)piperazin-1-yl)cyclopent-1-en-1-yl)-7′,8′-dihydro-3′H-spiro[cyclopropane-1,6′-quinazolin]-4′(5′H)-one]
18 | 0.001 to 0.5 µM | Cc1cc(N2CCN([C@H]3C=C(c4nc5c(c(=O)[nH]4)CC4(CC5)CC4)CC3)CC2)ccn1 [Compound 147, (R)-2′-(3-(4-(2-methylpyridin-4-yl)piperazin-1-yl)cyclopent-1-en-1-yl)-7′,8′-dihydro-3′H-spiro[cyclopropane-1,6′-quinazolin]-4′(5′H)-one]
19 | 0.501 to 5 µM | O=c1[nH]c(C2=C[C@H](N3CCN(c4ccc(-c5ccsc5)cc4)CC3)CC2)nc2c1CC1(CC2)CC1 [Compound 148, (R)-2′-(3-(4-(4-(thiophen-3-yl)phenyl)piperazin-1-yl)cyclopent-1-en-1-yl)-7′,8′-dihydro-3′H-spiro[cyclopropane-1,6′-quinazolin]-4′(5′H)-one]
20 | 0.001 to 0.5 µM | O=c1[nH]c([C@H]2CC[C@H](N3CCN(c4ccc(F)cc4)CC3)C2)nc2c1CC1(CC2)CC1 [Compound 149, 2′-((1S,3S)-3-(4-(4-fluorophenyl)piperazin-1-yl)cyclopentyl)-7′,8′-dihydro-3′H-spiro[cyclopropane-1,6′-quinazolin]-4′(5′H)-one]
21 | 0.001 to 0.5 µM | O=c1[nH]c([C@@H]2CC[C@H](N3CCN(c4ccc(F)cc4)CC3)C2)nc2c1CC1(CC2)CC1 [Compound 150, 2′-((1R,3S)-3-(4-(4-fluorophenyl)piperazin-1-yl)cyclopentyl)-7′,8′-dihydro-3′H-spiro[cyclopropane-1,6′-quinazolin]-4′(5′H)-one]
22 | 0.001 to 0.5 µM | O=c1[nH]c([C@H]2CC[C@@H](N3CCN(c4ccc(F)cc4)CC3)C2)nc2c1CC1(CC2)CC1 [Compound 151, 2′-((1S,3R)-3-(4-(4-fluorophenyl)piperazin-1-yl)cyclopentyl)-7′,8′-dihydro-3′H-spiro[cyclopropane-1,6′-quinazolin]-4′(5′H)-one]
23 | 0.501 to 5 µM | O=c1[nH]c([C@@H]2CC[C@@H](N3CCN(c4ccc(F)cc4)CC3)C2)nc2c1CC1(CC2)CC1 [Compound 152, 2′-((1R,3R)-3-(4-(4-fluorophenyl)piperazin-1-yl)cyclopentyl)-7′,8′-dihydro-3′H-spiro[cyclopropane-1,6′-quinazolin]-4′(5′H)-one]
24 | 5 to 500 µM | O=c1[nH]c([C@@H]2CC[C@H](N3CCN(c4cccc(F)c4)CC3)C2)nc2c1CC1(CC2)CC1 [Compound 153, 2′-((1R,3S)-3-(4-(3-fluorophenyl)piperazin-1-yl)cyclopentyl)-7′,8′-dihydro-3′H-spiro[cyclopropane-1,6′-quinazolin]-4′(5′H)-one]
25 | 0.001 to 0.5 µM | O=c1[nH]c([C@H]2CC[C@H](N3CCN(c4cccc(F)c4)CC3)C2)nc2c1CC1(CC2)CC1 [Compound 154, 2′-((1S,3S)-3-(4-(3-fluorophenyl)piperazin-1-yl)cyclopentyl)-7′,8′-dihydro-3′H-spiro[cyclopropane-1,6′-quinazolin]-4′(5′H)-one]
26 | 0.501 to 5 µM | O=c1[nH]c([C@H]2CC[C@@H](N3CCN(c4cccc(F)c4)CC3)C2)nc2c1CC1(CC2)CC1 [Compound 155, 2′-((1S,3R)-3-(4-(3-fluorophenyl)piperazin-1-yl)cyclopentyl)-7′,8′-dihydro-3′H-spiro[cyclopropane-1,6′-quinazolin]-4′(5′H)-one]
27 | 5 to 500 µM | O=c1[nH]c([C@@H]2CC[C@@H](N3CCN(c4cccc(F)c4)CC3)C2)nc2c1CC1(CC2)CC1 [Compound 156, 2′-((1R,3R)-3-(4-(3-fluorophenyl)piperazin-1-yl)cyclopentyl)-7′,8′-dihydro-3′H-spiro[cyclopropane-1,6′-quinazolin]-4′(5′H)-one]
28 | 0.501 to 5 µM | O=c1[nH]c(C2=C[C@H](N3CCN(c4ccc(-c5ccccc5)nc4)CC3)CC2)nc2c1CC1(CC2)CC1 [Compound 157, (R)-2′-(3-(4-(6-phenylpyridin-3-yl)piperazin-1-yl)cyclopent-1-en-1-yl)-7′,8′-dihydro-3′H-spiro[cyclopropane-1,6′-quinazolin]-4′(5′H)-one]
